In paper PMC4521150, “Discovery of Novel Inhibitors and Fluorescent Probe Targeting NAMPT” (Scientific Reports, 2015):

How the values were obtained:
[1] = molecular target: T1, recombinant human NAMPT (Homo sapiens, UniProt P43490); test: NAMPT activity assay, IC50 determination (fluorometric detection of NMN derivative); details: molecular/biochemical assay, read-out: IC50 (NAMPT inhibition)
T1 construct: His tag (N); made in house; host or cells: E. coli BL21-CodonPlus (DE3)-RIL, pET21a+ vector
T1 sequence (P43490 whole entry): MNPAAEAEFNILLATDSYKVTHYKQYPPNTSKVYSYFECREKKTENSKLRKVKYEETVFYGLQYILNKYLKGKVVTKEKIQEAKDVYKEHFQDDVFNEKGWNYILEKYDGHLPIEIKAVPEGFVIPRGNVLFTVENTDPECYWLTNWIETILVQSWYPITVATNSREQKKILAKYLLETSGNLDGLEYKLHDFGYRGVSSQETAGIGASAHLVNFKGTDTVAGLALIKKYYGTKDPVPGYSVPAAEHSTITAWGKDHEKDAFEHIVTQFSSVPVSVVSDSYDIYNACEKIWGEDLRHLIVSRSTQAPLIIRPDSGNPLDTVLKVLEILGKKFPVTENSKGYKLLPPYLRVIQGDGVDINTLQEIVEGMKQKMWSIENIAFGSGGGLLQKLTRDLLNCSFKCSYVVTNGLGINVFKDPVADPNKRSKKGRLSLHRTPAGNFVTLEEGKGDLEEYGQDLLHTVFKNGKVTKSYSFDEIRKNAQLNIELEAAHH
Excerpt: Using our previously established high throughput screening (HTS) platform and recombinant human NAMPT[14][15], we performed a HTS on a chemical library containing 30000 small-molecules (Chemdiv, CA, USA). Our HTS targeting NAMPT was developed based on a fluorometric method for NAMPT activity assay by measuring the fluorescence of nicotinamide mononucleotide (NMN) derivative resulting from the NAMPT enzymatic product NMN through simple chemical reactions (Fig. 1A). […] These fluorescent and non-fluorescent compounds were further studied separately.
HTS was performed using our previously reported method. 0.5 μl stock of each compound (1 mM DMSO stock) was transferred to a 96-well PCR plate for screening. In the primary screening, 5 ng NAMPT in 20 μl reaction buffer [0.4 mM phosphoribosylpyrophosphate (PRPP, Sigma), 2 mM ATP, 0.02% BSA, 2 mM DTT, 12 mM MgCl2 and 50 mM Tris-HCl (pH = 7.5)] was added into each well, the plate was incubated at 37 °C for 5 min, then 4.5 μl substrate of NAM was added to initiate the enzyme reaction, resulting in a final concentration of 2% DMSO, 2 μg/ml NAMPT, 0.2 μM NAM and 20 μM compound. After reacting at 37 °C for 15 min, the enzyme reaction was terminated by heating at 95 °C for 1 min and cooling in an ice bath. The product of NMN was detected through the following approach: after adding 10 μl 20% acetophenone in DMSO and 10 μl 2 M KOH into each well, the mixture was vortex-mixed and kept in ice bath for 2 min. […] Finally, 85 μl mixtures in each well were transferred into a flat-bottom 96-well black plate (Greiner), and the fluorescence (F) was measured using a Tecan Infinity M200 plate reader (Tecan Group Ltd.) by setting the excitation and emission wavelength to 382 nm and 445 nm respectively. The last row of each 96-well plate includes six wells of background controls and six wells of reference controls. The relative enzyme activity (Activity%) regulated by specific compound was calculated according to equation (1): […]
To determine the IC50 of inhibitors, 0.5 μl compound stocks with various concentrations were added into 96-well plate. The plate was incubated at 37 °C for 5 min after addition of 20 μl reaction buffer containing NAMPT. […] The IC50 values were determined by non-linear fitting of the concentration-dependent curves with the four-parameter IC50 logistic equation.

[2] = molecular target: T1, recombinant human NAMPT; test: HTS / fixed-concentration NAMPT activity screen (fluorometric); type: biochemical; details: 20 μM compound; analogues of the 46 non-fluorescent inhibitors
Excerpt: Using our previously established high throughput screening (HTS) platform and recombinant human NAMPT[14][15], we performed a HTS on a chemical library containing 30000 small-molecules (Chemdiv, CA, USA). Our HTS targeting NAMPT was developed based on a fluorometric method for NAMPT activity assay by measuring the fluorescence of nicotinamide mononucleotide (NMN) derivative resulting from the NAMPT enzymatic product NMN through simple chemical reactions (Fig. 1A). The 30000 compounds were dissolved with dimethyl sulfoxide (DMSO); most of compounds were soluble at 10 mM stock solution (94.1%), some compounds insoluble at 10 mM were soluble at 2.5 mM stock solution (4.4%), and the remaining compounds insoluble at 2.5 mM (1.5%) were diluted further during HTS experiments (Fig. 1B). To guarantee the quality of screening, S/N ratio, CV and Z’ factors were monitored throughout the screenings, and all three indices met the requirements of HTS (Fig. 1C–E). After a primary screen and a secondary screen of all compounds at 20 μM, 242 compounds were selected as the hits of NAMPT inhibitors (NAMPT activity < 40%), and the hit rate was ~0.8% (Fig. 1F). […] All these 55 compounds were not reported as NAMPT inhibitors previously. Among the 55 compounds, we noted 46 compounds were non-fluorescent and 9 compounds were fluorescent (Fig. 1F). These fluorescent and non-fluorescent compounds were further studied separately.
HTS was performed using our previously reported method. 0.5 μl stock of each compound (1 mM DMSO stock) was transferred to a 96-well PCR plate for screening. In the primary screening, 5 ng NAMPT in 20 μl reaction buffer [0.4 mM phosphoribosylpyrophosphate (PRPP, Sigma), 2 mM ATP, 0.02% BSA, 2 mM DTT, 12 mM MgCl2 and 50 mM Tris-HCl (pH = 7.5)] was added into each well, the plate was incubated at 37 °C for 5 min, then 4.5 μl substrate of NAM was added to initiate the enzyme reaction, resulting in a final concentration of 2% DMSO, 2 μg/ml NAMPT, 0.2 μM NAM and 20 μM compound. After reacting at 37 °C for 15 min, the enzyme reaction was terminated by heating at 95 °C for 1 min and cooling in an ice bath. The product of NMN was detected through the following approach: after adding 10 μl 20% acetophenone in DMSO and 10 μl 2 M KOH into each well, the mixture was vortex-mixed and kept in ice bath for 2 min. Then 45 μl 88% formic acid was added and the mixture was incubated at 37 °C for 10 min. Finally, 85 μl mixtures in each well were transferred into a flat-bottom 96-well black plate (Greiner), and the fluorescence (F) was measured using a Tecan Infinity M200 plate reader (Tecan Group Ltd.) by setting the excitation and emission wavelength to 382 nm and 445 nm respectively. The last row of each 96-well plate includes six wells of background controls and six wells of reference controls. The relative enzyme activity (Activity%) regulated by specific compound was calculated according to equation (1):
F0 was the averaged fluorescence of six background controls, representing zero activity from a simulated enzyme reaction with only NAMPT but no NAM and compound; F100% was the averaged fluorescence of six reference controls, representing 100% activity from intact enzyme reaction without compound perturbation.
Compounds with Activity% less than 40% were considered as inhibitors and subjected to a secondary screen inhibition validation, in which another background control (FC0), a simulated enzyme reaction with NAMPT and compound but no NAM, was introduced to eliminate the direct and/or indirect influence from compound. At this stage, the Activity% was calculated according to equation (2): […]

[3] = tested on: HepG2 cells; test: Cell viability assay (CCK-8) in HepG2 cells; type: cell-based, human; details: 2 μM, 48 hours of incubation
Method: Cell viability was determined by our previous method[27] using the Cell Counting Kit-8 (CCK-8, Dojindo, Japan). In human hepatocellular carcinoma cell line HepG2, cells were seeded in 96-well plate and starved for over 12 h with serum-free DMEM at 60~70% confluency, then treated with compounds or vehicle for 48 h. To determine the IC50 values of inhibitors, compounds with various concentrations were added into the 96-well plate. 10 μl CCK-8 solution was added to the culture medium and incubated at 37 °C for 1 h. The absorbance at 450 nm (A450) was detected by a plate reader. Each experiment was carried out in triplicate in three replicate wells. The IC50 values were determined by non-linear fitting of the concentration-dependent curves with the four-parameter IC50 logistic equation.

SMILES	IC50 [1] [nM]	NAMPT inhibition activity at 20 μM [2]	Effect on HepG2 cell viability at 2 μM [3]
CC(=O)C1=C(C)Nc2ccccc2S1 [1932-0007]	408.6 ± 1.83	–	–
O=C(CSc1nc2c(c(C(F)(F)F)n1)CCc1ccccc1-2)NCCCn1ccnc1 [6466-0191]	59.4 ± 1.15	–	–
O=C(CSC1=Nc2ccccc2N=C(c2cccs2)C1)Nc1ccc2c(c1)OCCO2 [C201-1487]	172 ± 17.3	Yes	–
O=C(CSC1=Nc2ccccc2N=C(c2ccccn2)C1)Nc1ccc2c(c1)OCCO2 [C201-1928]	1450 ± 51.7	–	–
O=C(NCc1ccc(Cl)cc1)c1ccc(CNc2c(N3CCCCC3)c(=O)c2=O)cc1 [C804-0859]	704 ± 16.7	–	–
CC1CCN(c2c(NCc3ccc(C(=O)NCCc4ccccc4)cc3)c(=O)c2=O)CC1 [C852-0409]	1280 ± 154	–	–
CC1CCN(c2c(NCc3ccc(C(=O)NCc4ccc(F)cc4)cc3)c(=O)c2=O)CC1 [C852-0431]	869 ± 67.2	–	–
CCCc1cc(Nc2ccc(C(=O)NCc3cccnc3)cc2)n2nc(-c3cccnc3)nc2n1 [D515-0654]	283 ± 19.2	–	significant inhibition on cell viability
O=C(Nc1cccnc1)c1ccc(-n2cnnn2)cc1 [D633-0045]	416 ± 30.7	–	–
Cc1nn(CCCC(=O)Nc2cccc(F)c2)c(=O)c2c1sc1ccccc12 [E019-0970]	298 ± 32.1	–	–
CC(=O)c1ccc(NC(=O)Cc2noc3ccccc23)cc1 [E207-0481]	739 ± 37.8	–	–
O=C(NCc1ccccc1)c1ccc(Cn2c(=O)c3cccn3c3cccnc32)cc1 [E524-1566]	140 ± 7.31	–	significant inhibition on cell viability
COc1ccc(CNC(=O)c2ccc(Cn3c(=O)c4cccn4c4cccnc43)cc2)cc1 [E524-1597]	75.9 ± 3.51	–	–
Cc1ccc(CNC(=O)c2ccc(Cn3c(=O)c4cccn4c4cccnc43)cc2)cc1 [E524-1599]	97.8 ± 3.13	–	significant inhibition on cell viability
CC(C)CCNC(=O)c1ccc(Cn2c(=O)c3cccn3c3cccnc32)cc1 [E524-1626]	393 ± 8.51	–	–
Cc1cccc(CNC(=O)c2ccc(Cn3c(=O)c4cccn4c4cccnc43)cc2)c1 [E524-1627]	85.5 ± 11.1	–	significant inhibition on cell viability
O=C(NCCc1ccccc1)c1ccc(Cn2c(=O)c3cccn3c3cccnc32)cc1 [E524-1628]	70.9 ± 0.74	–	–
Cc1ccccc1CCNC(=O)c1ccc(Cn2c(=O)c3cccn3c3cccnc32)cc1 [E524-1763]	253 ± 17.9	–	–
O=C(NCc1noc2ccccc12)NC1CCCCC1 [E567-0011]	1620 ± 57.9	–	–

SMILES	IC50 [1] [nM]	NAMPT inhibition activity at 20 μM [2]	Effect on HepG2 cell viability at 2 μM [3]
COc1ccc(NC(=O)NCc2noc3ccccc23)cc1Cl [E567-0014]	411 ± 28.1	–	–
CCc1ccc(NC(=O)NCc2noc3ccccc23)cc1 [E567-0089]	62.6 ± 2.89	–	–
COc1ccc(NC(=O)NCc2noc3ccccc23)cc1 [E567-0222]	171 ± 10.7	–	significant inhibition on cell viability
CCOC(=O)c1ccc(NC(=O)NCc2noc3ccccc23)cc1 [E567-0238]	86.9 ± 2.77	–	–
CC(=O)c1cccc(NC(=O)NCc2noc3ccccc23)c1 [E567-0248]	250 ± 40.7	–	–
COc1ccc(CCNC(=O)NCc2noc3ccccc23)c(OC)c1 [E567-0299]	202 ± 17.6	–	–
COc1ccc(OC)c(CCNC(=O)NCc2noc3ccccc23)c1 [E567-0302]	401 ± 11.2	–	–
CSc1ccc(CCNC(=O)NCc2noc3ccccc23)cc1 [E567-0304]	126 ± 4.23	–	–
CN1C(=O)C(C)(C)c2cc(S(=O)(=O)NCc3ccc(C(=O)NCc4cccnc4)cc3)ccc21 [E589-3083]	116 ± 13.1	–	–
Cc1cc2nc(C)c(=O)n(Cc3ccc(C(=O)NCc4ccccn4)cc3)c2cc1C [F671-0199]	171 ± 16.8	–	–
CCn1c(=O)c(=O)n(Cc2ccc(C(=O)NCc3cccc(Cl)c3)cc2)c2cccnc21 [F704-0076]	1000 ± 57	–	–
CCn1c(=O)c(=O)n(Cc2ccc(C(=O)NCc3ccc(Cl)cc3)cc2)c2cccnc21 [F704-0088]	296 ± 7.61	–	–
CCn1c(=O)c(=O)n(Cc2ccc(C(=O)NCc3ccccc3F)cc2)c2cccnc21 [F704-0231]	1450 ± 143	–	–
CCn1c(=O)c(=O)n(Cc2ccc(C(=O)NCc3cccc(Br)c3)cc2)c2cccnc21 [F704-0251]	517 ± 37.9	–	–
O=C(NCCCN1CCCC1=O)c1ccc(N2CCc3ccccc32)s1 [G122-1637]	411 ± 148	–	–
O=C(Nc1ccc(OCc2nnc(-c3ccccc3)o2)cc1)c1cnccn1 [M350-0100]	60.2 ± 3.63	Yes	significant inhibition on cell viability
COc1ccc(-c2nnc(COc3ccc(NC(=O)c4cnccn4)cc3)o2)cc1 [M350-0814]	118 ± 10.7	–	significant inhibition on cell viability
Cc1ccccc1-c1nnc(COc2ccc(NC(=O)c3cnccn3)cc2)o1 [M350-1052]	60.8 ± 2.61	–	–
